From PubChem BioAssay AID248 (DTP/NCI, 2004) come the findings set out here.

Several values for one entry are separate records, joined by “and”; a condition that tells them apart may be missing. Equal values may be shown once. Inconclusive results and toxic doses are left out.

The assay relates to L1210 leukemia ip in BDF1 mice, survival T/C. Briefly: NCI In Vivo Anticancer Drug Screen. Data for tumor model L1210 Leukemia (intraperitoneal) in B6D2F1 (BDF1) mice. As to conditions: endpoint: mean survival time, higher = longer survival. Summed up: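 Ratio derived from survival: compound-dosed mice over vehicle-dosed mice, all bearing a transplantable tumor.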
The mark [1] stands for this setting: dose: 25.0 mg/kg/injection, schedule: Q01DX009 (ip), vehicle: Klucel (hydroxypropylcellulose) (HPC).
[2] abbreviates: dose: 50.0 mg/kg/injection, schedule: Q01DX009 (ip), vehicle: Klucel (hydroxypropylcellulose) (HPC).
The mark [3] stands for this setting: dose: 100.0 mg/kg/injection, schedule: Q01DX009 (ip), vehicle: Klucel (hydroxypropylcellulose) (HPC).
Where [4] appears, read: dose: 100.0 mg/kg/injection, schedule: Q04DX003 (ip), vehicle: Klucel (hydroxypropylcellulose) (HPC).
Setting [5] is: dose: 200.0 mg/kg/injection, schedule: Q01DX009 (ip), vehicle: Klucel (hydroxypropylcellulose) (HPC).
The mark [6] stands for this setting: dose: 200.0 mg/kg/injection, schedule: Q04DX003 (ip), vehicle: Klucel (hydroxypropylcellulose) (HPC).

As to `Nc1ccccc1S(N)(=O)=O`, the T/C runs as follows: (dose: 25.0 mg/kg/injection, schedule: Q04DX002 (ip), vehicle: Klucel (hydroxypropylcellulose) (HPC)) 97 % of control; (dose: 50.0 mg/kg/injection, schedule: Q04DX002 (ip), vehicle: Klucel (hydroxypropylcellulose) (HPC)) 97 % of control; (dose: 100.0 mg/kg/injection, schedule: Q04DX002 (ip), vehicle: Klucel (hydroxypropylcellulose) (HPC)) 101 % of control and 120 % of control; (dose: 200.0 mg/kg/injection, schedule: Q04DX002 (ip), vehicle: Klucel (hydroxypropylcellulose) (HPC)) 97 % of control and 100 % of control; (dose: 400.0 mg/kg/injection, schedule: Q04DX002 (ip), vehicle: Klucel (hydroxypropylcellulose) (HPC)) 113 % of control.

Turning to `CS(C)=O.CS(C)=O.[Cl][Sn]([Cl])([Cl])[Cl]`, the T/C is 95 % of control under setting [1]; 90 % of control under setting [2]; 106 % of control under setting [3]; 95 % of control under setting [4]; 104 % of control (dose: 150.0 mg/kg/injection, schedule: Q01DX009 (ip), vehicle: Klucel (hydroxypropylcellulose) (HPC)).

On to `CCC(CCc1ccccn1)C(=O)c1ccccc1` (stereo not drawn), for which the T/C is, setting by setting: (dose: 75.0 mg/kg/injection, schedule: Q01DX001 (ip), vehicle: carboxymethylcellulose (CMC)) 100 % of control; (dose: 150.0 mg/kg/injection, schedule: Q01DX001 (ip), vehicle: carboxymethylcellulose (CMC)) 96 % of control; (dose: 300.0 mg/kg/injection, schedule: Q01DX001 (ip), vehicle: carboxymethylcellulose (CMC)) 94 % of control.

On to `O=C1CCCN(C2CCCCC2)CCC1O` (stereo not drawn), for which the T/C was 96 % of control (dose: 100.0 mg/kg/injection, schedule: Q04DX003 (ip), vehicle: acetone) and 93 % of control (dose: 200.0 mg/kg/injection, schedule: Q04DX003 (ip), vehicle: acetone).

Consider `O=C(O)C1C2C=CCC1CC2` (stereo not drawn), for which the T/C was 100 % of control (dose: 100.0 mg/kg/injection, schedule: Q04DX003 (ip), vehicle: alcohol); 103 % of control (dose: 200.0 mg/kg/injection, schedule: Q04DX003 (ip), vehicle: alcohol); 100 % of control (dose: 400.0 mg/kg/injection, schedule: Q04DX003 (ip), vehicle: alcohol).

As to `O=[N+]([O-])c1ccc(N/N=C2\Cc3ccccc3Cc3ccccc32)c([N+](=O)[O-])c1`, the T/C was 90 % of control (dose: 50.0 mg/kg/injection, schedule: Q01DX001 (ip), vehicle: Klucel (hydroxypropylcellulose) (HPC)); 98 % of control (dose: 100.0 mg/kg/injection, schedule: Q01DX001 (ip), vehicle: Klucel (hydroxypropylcellulose) (HPC)); 90 % of control (dose: 200.0 mg/kg/injection, schedule: Q01DX001 (ip), vehicle: Klucel (hydroxypropylcellulose) (HPC)).

For `CCCCOP(=O)(O)OCCCC.[Cd]`, the T/C is 96 % of control (dose: 3.0 mg/kg/injection, schedule: Q01DX009 (ip), vehicle: Klucel (hydroxypropylcellulose) (HPC)); 96 % of control (dose: 6.0 mg/kg/injection, schedule: Q01DX009 (ip), vehicle: Klucel (hydroxypropylcellulose) (HPC)); 95 % of control (dose: 12.0 mg/kg/injection, schedule: Q01DX009 (ip), vehicle: Klucel (hydroxypropylcellulose) (HPC)); 96 % of control (dose: 12.5 mg/kg/injection, schedule: Q01DX009 (ip), vehicle: Klucel (hydroxypropylcellulose) (HPC)); 94 % of control under setting [1].

Regarding `O=C(Nc1ccc(C2=NCCN2)cc1)c1cccc(C(=O)Nc2ccc(C3=NCCN3)cc2)c1[N+](=O)[O-]`, the T/C was 100 % of control (dose: 1.88 mg/kg/injection, schedule: Q01DX Z (ip), vehicle: saline); 100 % of control (dose: 3.75 mg/kg/injection, schedule: Q01DX Z (ip), vehicle: saline); 100 % of control (dose: 7.5 mg/kg/injection, schedule: Q01DX Z (ip), vehicle: saline); 105 % of control (dose: 15.0 mg/kg/injection, schedule: Q01DX Z (ip), vehicle: saline); 198 % of control (dose: 30.0 mg/kg/injection, schedule: Q01DX Z (ip), vehicle: carboxymethylcellulose (CMC)); 103 % of control (dose: 30.0 mg/kg/injection, schedule: Q01DX Z (oral), vehicle: saline). For the same compound, the T/C reads like this: (dose: 60.0 mg/kg/injection, schedule: Q01DX Z (ip), vehicle: carboxymethylcellulose (CMC)) 117 % of control; (dose: 60.0 mg/kg/injection, schedule: Q01DX Z (oral), vehicle: saline) 105 % of control; (dose: 120.0 mg/kg/injection, schedule: Q01DX Z (oral), vehicle: saline) 107 % of control; (dose: 240.0 mg/kg/injection, schedule: Q01DX Z (oral), vehicle: saline) 102 % of control.

In the case of `CCOC(=O)C(C#N)CCC#N` (stereo not drawn), the T/C reads like this: (dose: 100.0 mg/kg/injection, schedule: Q01DX009 (ip), vehicle: saline with Tween-80) 113 % of control; (dose: 200.0 mg/kg/injection, schedule: Q01DX009 (ip), vehicle: saline with Tween-80) 98 % of control; (dose: 400.0 mg/kg/injection, schedule: Q01DX009 (ip), vehicle: saline with Tween-80) 104 % of control.

For the compound `O=C(O)CC1C=CCC1` (stereo not drawn), the T/C (dose: 25.0 mg/kg/injection, schedule: Q04DX003 (ip), vehicle: saline) was 90 % of control.

On to `N#CC(C(N)=O)C1CC(=O)Oc2ccccc21` (stereo not drawn), for which the T/C reads like this: under setting [2], 100 % of control; under setting [3], 105 % of control; under setting [5], 100 % of control.

Take `Nc1ccc(CS(=O)(=O)O)cc1`: the T/C is 112 % of control (dose: 100.0 mg/kg/injection, schedule: Q01DX009 (ip), vehicle: saline); 101 % of control (dose: 200.0 mg/kg/injection, schedule: Q01DX009 (ip), vehicle: saline); 101 % of control (dose: 400.0 mg/kg/injection, schedule: Q01DX009 (ip), vehicle: saline).

On to `O=C(/C=C/c1ccccc1)N(c1ccccc1)C1CCCCC1`, for which the T/C by setting is: under setting [4], 112 % of control; under setting [6], 89 % of control; (dose: 400.0 mg/kg/injection, schedule: Q04DX003 (ip), vehicle: Klucel (hydroxypropylcellulose) (HPC)) 88 % of control.

On to `CCOC(O)C(F)(F)F` (stereo not drawn), for which the T/C (dose: 50.0 mg/kg/injection, schedule: Q01DX015 (ip), vehicle: saline) was 93 % of control; the T/C (dose: 100.0 mg/kg/injection, schedule: Q01DX001 (ip), vehicle: saline) is 98 % of control; the T/C (dose: 100.0 mg/kg/injection, schedule: Q01DX009 (ip), vehicle: acetone) is 103 % of control; the T/C (dose: 100.0 mg/kg/injection, schedule: Q01DX015 (ip), vehicle: saline) was 96 % of control; the T/C (dose: 200.0 mg/kg/injection, schedule: Q01DX001 (ip), vehicle: saline) is 112 % of control; the T/C (dose: 200.0 mg/kg/injection, schedule: Q01DX009 (ip), vehicle: acetone) is 102 % of control. Further, the T/C runs as follows: (dose: 200.0 mg/kg/injection, schedule: Q01DX015 (ip), vehicle: saline) 88 % of control; (dose: 400.0 mg/kg/injection, schedule: Q01DX001 (ip), vehicle: saline) 102 % of control.

For `COC(=O)C(CSCc1ccccc1)NC(=O)OCc1ccccc1` (stereo not drawn), the T/C under setting [3] was 96 % of control; the T/C under setting [4] was 90 % of control; the T/C under setting [5] is 94 % of control; the T/C under setting [6] was 87 % of control; the T/C (dose: 400.0 mg/kg/injection, schedule: Q01DX009 (ip), vehicle: Klucel (hydroxypropylcellulose) (HPC)) is 94 % of control.

In the case of `CCOP(=S)(OCC)SC(C)C`, the T/C is, setting by setting: (dose: 100.0 mg/kg/injection, schedule: Q04DX003 (ip), vehicle: saline with Tween-80) 97 % of control; (dose: 200.0 mg/kg/injection, schedule: Q04DX003 (ip), vehicle: saline with Tween-80) 97 % of control.

As to `CCCCCCCC/C=C\CCCCCCCC(=O)N1CC[N+](C)(C)CC1`, the T/C was 96 % of control (dose: 5.0 mg/kg/injection, schedule: Q01DX001 (ip), vehicle: saline); 104 % of control (dose: 10.0 mg/kg/injection, schedule: Q01DX001 (ip), vehicle: saline); 93 % of control (dose: 20.0 mg/kg/injection, schedule: Q01DX001 (ip), vehicle: saline); 93 % of control (dose: 40.0 mg/kg/injection, schedule: Q01DX001 (ip), vehicle: saline).
